Where two headings read alike, the source gives them in different places.
What was measured:
human erythrocytes [1] = experiment: Haemolysis assay; assay type: cell-based; conditions: fresh blood diluted with PBS (1:2), compound in DMSO, 37 °C for 30 min, triplicates, read-out: EC50 for haemolysis (haemoglobin release)
[2] = Lucigenin assay of Cl− transport in vesicles; assay type: biochemical; conditions: 100 µM compound, interior NaNO3 200 mM, exterior NaCl (2 M), 25°C, first-order curve fit
Procedure: To confirm that chloride could pass through the bilayers, lucigenin assays[5a] were performed for 2, Cu(II)[1]Cl2 and Cu(II)[2]Cl2 (Fig. 5 and ESI, Fig. S10 ^†). The same lipids were used as for the HPTS assays and lucigenin was encapsulated with NaNO3 in the vesicles.
Figure S9: Ionophoric activity determined through an HPTS assay in the presence of NaCl (100 mM) for: 2 (10 µM) in the absence (pink inverted triangles) and presence of FCCP (20 µM, blue triangles) and Cu(II)[2]Cl2 (6 µM) in the absence (red circles) and presence of FCCP (20 µM, black squares). Base pulse at 1 min, TX-100 added at 7 min.
5.4 Preparation of large unilamellar vesicles for lucigenin assays […]
Lucigenin assays procedure and fluorescence normalisation were developed by a modification of published methods.10 An aliquot of the vesicle stock solution (100 μL) w as diluted to 1.9 mL with 200 mM NaNO 3 in water (pH = 7.4) (final lipid co ncentration in cuvette 0.762 mM). […] The cuvette was then placed into a Varian Cary Eclipse fluorescence spectrophotometer in the moderate stirring mode. The fluorescence emission at 505 nm was observed, resulting from excitation at 455 nm, over a period of seven minutes (420 seconds) at 25°C. […] The change in fluorescence was followed for six minutes before final lysis of the vesicles at seven minutes (420 s) by adding an aliquot of a 10 % v/v solution of Triton X-100 […]

[3] = tested on: B. megaterium strain DSM319; experiment: Antimicrobial assay: minimum inhibitory concentration (MIC); assay type: cell-based; conditions: B. megaterium strain DSM319, LB broth, about 3 × 10^6 CFU/mL, 30 °C overnight, OD 600 nm, compound in DMSO, three biological repeats with three technical repeats
Procedure: The antibiotic activities of 1, 2, Cu(II)[1]Cl2 and Cu(II)[2]Cl2 were measured against B. megaterium strain DSM319 (see the ESI ^†).
Metal ion chelating Aib foldamers 1 and 2 bear a novel amino-terminal copper and nickel (ATCUN) binding motif; other ATCUN motifs are reported to increase antibiotic properties by generating reactive oxygen species upon metal binding.24 Furthermore many copper-containing metallodrugs have been stu died for their anticancer25 and antibiotic properties.26 Introducing the Cu(II)(BPTA) group onto the Aib octamer unit […]
antibiotic studies of long Aib n oligomers (n ≥ 10).15
7.1 Antimicrobial assays: minimum inhibitory concentrations (MIC)
The used procedure was developed by modification of published methods.27 The antimicrobial activity of the appropriate compound was tested against B. megaterium strain DSM319. Bacteria were grown over night at 30 °C in standard lysogeny broth (LB) broth from a single colony overnight. An aliquot from this suspension was taken and diluted (1:100) in fresh LB broth until the suspension reached the mid - logarithmic phase (OD600 = 0.4). […]
The plates were shaken for about 30 seconds and the optical density (OD) was measured at 600 nm.
Afterwards the plates were incubated at 30 °C under aerobic conditions with shaking overnight. The absorbance was then measured at 600 nm using a ClarioStar plate reader. […]

human erythrocytes [4] = conditions: in phosphate buffer after 1 h incubation; read-out: reported EC50 for haemolysis; cited from earlier work
Excerpt: Although alamethicin is a very active channel former, its use in the clinic is hampered by its high haemolytic activity.[52]

[5] = cited from earlier work
Excerpt: Application of Hille's equation[47] to estimate the inner channel diameters for both Cu(II)[2]Cl2 and Cu(II)[2]Cl·HCO3 provided approximate pore diameters of 1.5 nm, 2.1 nm and 2.3 nm for the different conductance levels (see the ESI ^†). […] Planar bilayer conductance (PBC) studies Alamethicin provides a useful comparison to the data reported in the manuscript and in the ESI.

Substance: alamethicin
- EC50 (human erythrocytes [1]): 1400 nM
- kobs of Cl− transport (lucigenin assay) [2]: 0.0073 s⁻¹
- MIC, minimum inhibitory concentration [3]: 6 ± 2 µM
- EC50 (human erythrocytes [4]): 1450 nM
- proposed pore diameter, hexameric pores [5]: 1.1 nm
- proposed pore diameter, octameric pores [5]: 1.8 nm

Source: PMC7481839, “Switchable foldamer ion channels with antibacterial activity” (Chemical Science, 2020)
